Test results from patent publication US11214803B2, “Modulators of YAP1 expression” (Ionis Pharmaceuticals, Inc., priority 2019, dated 2022).
Strand notation (5' to 3'): a small letter for the sugar, then the base; units joined by * are phosphorothioate-linked, units joined directly phosphodiester-linked; [ ] holds rarer units or linkages, { } end groups; capitals alone tell only the bases. k = constrained ethyl (cEt); [5mC] = 5-methylcytosine; d = 2'-deoxy (DNA)

Columns and labels:
[1] = test system: subcutaneous DEN carcinomas; assay: Tumor volume in DEN-HCC model, in combination with a-PD1 antibody (Example 49); assay type: in vivo, C57BL/6 mice; conditions: DEN-HCC subcutaneous model, C57BL/6 mice
Description: N-nitrosodiethylamine (DEN) is administered at 25 mg/kg into 15 day old C57/BL6 mice. Carcinomas form 6 months post injection. After formation, carcinomas were then dissected from the liver and passaged subcutaneously into C57BL/6 male mice at 4-6 weeks of age to establish a subcutaneous model. For this experiment, mice were passaged with P8 subcutaneously established DEN carcinomas, rendering P9 for the duration of the experiment. Subcutaneous carcinomas are found to form at 4-6 weeks post implantation. Modified oligonucleotides 792169 (control compound) and 715491 (YAP-1 targeting modified oligonucleotide) were treated subcutaneously into groups of 7-8 mice at 10 mg/kg/week 5 times a week for 11 weeks (total of 55 doses). The PBS-only treated group and the control group were treated 5 times a week for 4 weeks (total of 20 doses). α-PD1 antibody (BioXCell) was treated intraperitoneally at 10 mg/kg/week twice a week for 4 weeks (total of 8 doses). F.D. refers to mice that were sacrificed because their tumor volume became too large.

[2] = Tolerability in Balb/c mice, plasma chemistry markers (Example 10); assay type: in vivo; conditions: male Balb/c mice, 50 mg/kg subcutaneously twice a week for four weeks, day 26
Description: (§1) Balb/c mice were treated with modified oligonucleotides selected from studies described above and evaluated for changes in the levels of various plasma chemistry markers.
(§2) Groups of male Balb/c mice at 4-6 weeks of age (obtained from Taconic) were injected subcutaneously twice a week for four weeks (for a total of 8 treatments) with 50 mg/kg of modified oligonucleotides. One group of male Balb/c mice was injected with PBS. Mice were euthanized on day 26 post start of treatment (24 hours following the final administration).

Yap1 mRNA = assay: Dose-dependent inhibition of human Yap1 in A-431 cells (Example 7, 10,000 cells per well, RTS36584); assay type: cell-based; conditions: free uptake; for Yap1 mRNA, % UTC: A-431 cells 10,000 cells per well, 48 hours
How it was run: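 Yap1 mRNA was expressed as percent of untreated control after normalization to total RNA (RIBOGREEN), and IC50 was derived by log/linear linear regression. The read-out used primer-probe set RTS36584 roughly 48 hours after free-uptake dosing of oligonucleotides into A-431 cells (10,000 cells/well).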

[3] = Tolerability in Balb/c mice, body and organ weights (Example 10); assay type: in vivo; conditions: 50 mg/kg subcutaneously twice a week for four weeks, end of study
Description: as §2
Body weights of Balb/c mice were measured at the end of the study, and the average body weight for each group is presented in the table below. Modified oligonucleotides that caused any changes in organ weights outside the expected range for modified oligonucleotides were excluded from further studies.

[4] = Tolerability in Balb/c mice, plasma chemistry markers (Example 14); assay type: in vivo; conditions: male Balb/c mice, 50 mg/kg s.c. twice a week for four weeks (8 treatments), day 27
Description: as §1
as §2, with “5-6” for “4-6”, “27” for “26”

[5] = Tolerability in Balb/c mice, body and organ weights (Example 14); assay type: in vivo; conditions: male Balb/c mice, 50 mg/kg s.c. twice a week for four weeks (8 treatments); for Kidney weight / Liver weight / Spleen weight: end of study (day 27); for body weight: measured on day 25
Description: Groups of male Balb/c mice at 5-6 weeks of age (obtained from Taconic) were injected subcutaneously twice a week for four weeks (for a total of 8 treatments) with 50 mg/kg of modified oligonucleotides. One group of male Balb/c mice was injected with PBS. […]
Modified oligonucleotides that caused any changes in organ weights outside the expected range for modified oligonucleotides were excluded from further studies.

[6] = Table 56, A-431 cells 10,000 cells per well
[7] = Table 61, A-431 cells 10,000 cells per well
[8] = Table 58, A-431 cells 10,000 cells per well

## 715491 (kA*kA*k[5mC]*d[5mC]*dA*dA*d[5mC]*dT*dA*dT*dT*dA*d[5mC]*kT*kT*k[5mC]) [compound 715491]
[1]; day 1 on treatment
  Average Tumor Volume: 356 mm3
[1]; day 5 on treatment
  Average Tumor Volume: 417 mm3
[1]; day 8 on treatment
  Average Tumor Volume: 463 mm3
[1]; day 11 on treatment
  Average Tumor Volume: 461 mm3
[1]; day 15 on treatment
  Average Tumor Volume: 523 mm3
[1]; day 18 on treatment
  Average Tumor Volume: 526 mm3
[1]; day 23 on treatment
  Average Tumor Volume: 658 mm3
[1]; day 25 on treatment
  Average Tumor Volume: 659 mm3
[1]; day 28 on treatment
  Average Tumor Volume: 661 mm3
[1]; day 31 on treatment
  Average Tumor Volume: 740 mm3
[1]; day 35 on treatment
  Average Tumor Volume: 798 mm3
[1]; day 38 on treatment
  Average Tumor Volume: 741 mm3
[1]; day 43 on treatment
  Average Tumor Volume: 723 mm3
[1]; day 45 on treatment
  Average Tumor Volume: 741 mm3
[1]; day 49 on treatment
  Average Tumor Volume: 765 mm3
[1]; day 54 on treatment
  Average Tumor Volume: 780 mm3
[1]; day 58 on treatment
  Average Tumor Volume: 852 mm3
[1]; day 61 on treatment
  Average Tumor Volume: 925 mm3
[1]; day 65 on treatment
  Average Tumor Volume: 896 mm3
[1]; day 68 on treatment
  Average Tumor Volume: 940 mm3
[1]; day 72 on treatment
  Average Tumor Volume: 953 mm3
[1]; day 75 on treatment
  Average Tumor Volume: 985 mm3
[1]; day 79 on treatment
  Average Tumor Volume: 960 mm3
[2]
  ALT (U/L): 33 U/L
  AST (U/L): 48 U/L
  TBIL: 0.11 mg/dL
Yap1 mRNA; Table 56, 15.6 nM
  Yap1 mRNA, % UTC: 92 % UTC
Yap1 mRNA; Table 56, 62.5 nM
  Yap1 mRNA, % UTC: 83 % UTC
Yap1 mRNA; Table 56, 4000.00 nM
  Yap1 mRNA, % UTC: 28 % UTC
Yap1 mRNA; [6]
  IC50: 270 nM
[3]
  Kidney weight: 0.32 g
  Liver weight: 1.03 g
  Spleen weight: 0.12 g
  body weight: 22 g

## 958739 (kA*kG*k[5mC]*dA*dA*dT*dA*dG*dA*dG*dT*dA*dA*k[5mC]*k[5mC]*kA; antisense) [compound 958739]
[4]
  ALT: 145 U/L
  AST: 186 U/L
  BUN: 21 mg/dL
  TBIL: 0.21 mg/dL
[5]
  Kidney weight: 0.36 g
  Liver weight: 1.58 g
  Spleen weight: 0.13 g
  body weight: 24 g
Yap1 mRNA; Table 61, 15.6 nM
  Yap1 mRNA, % UTC: 77 % UTC
Yap1 mRNA; Table 61, 62.5 nM
  Yap1 mRNA, % UTC: 46 % UTC
Yap1 mRNA; Table 61, 4000.00 nM
  Yap1 mRNA, % UTC: 7 % UTC
Yap1 mRNA; [7]
  IC50: 100 nM

## 958589 (kG*kT*kA*dA*dA*dG*dG*dA*dA*dG*dA*dT*d[5mC]*kT*k[5mC]*k[5mC]; antisense) [compound 958589]
[4]
  ALT: 35 U/L
  AST: 66 U/L
  BUN: 24 mg/dL
  TBIL: 0.21 mg/dL
[5]
  Kidney weight: 0.37 g
  Liver weight: 1.40 g
  Spleen weight: 0.10 g
  body weight: 25 g
Yap1 mRNA; Table 61, 15.6 nM
  Yap1 mRNA, % UTC: 75 % UTC
Yap1 mRNA; Table 61, 62.5 nM
  Yap1 mRNA, % UTC: 50 % UTC
Yap1 mRNA; Table 61, 4000.00 nM
  Yap1 mRNA, % UTC: 8 % UTC
Yap1 mRNA; [7]
  IC50: 100 nM

## 958596 (kA*kG*k[5mC]*dA*dG*dT*dT*dA*dA*dG*d[5mC]*dA*d[5mC]*kT*kT*kT; antisense) [compound 958596]
[4]
  ALT: 207 U/L
  AST: 162 U/L
  BUN: 24 mg/dL
  TBIL: 0.23 mg/dL
[5]
  Kidney weight: 0.36 g
  Liver weight: 2.11 g
  Spleen weight: 0.13 g
  body weight: 25 g
Yap1 mRNA; Table 56, 15.6 nM
  Yap1 mRNA, % UTC: 69 % UTC
Yap1 mRNA; Table 56, 62.5 nM
  Yap1 mRNA, % UTC: 38 % UTC
Yap1 mRNA; Table 56, 4000.00 nM
  Yap1 mRNA, % UTC: 7 % UTC
Yap1 mRNA; [6]
  IC50: 40 nM

## 958622 (kG*kA*kT*dA*dT*dT*d[5mC]*d[5mC]*dG*d[5mC]*dA*dT*dT*kG*k[5mC]*k[5mC]; antisense) [compound 958622]
[4]
  ALT: 224 U/L
  AST: 254 U/L
  BUN: 23 mg/dL
  TBIL: 0.24 mg/dL
[5]
  Kidney weight: 0.33 g
  Liver weight: 0.92 g
  Spleen weight: 0.12 g
  body weight: 23 g
Yap1 mRNA; Table 58, 15.6 nM
  Yap1 mRNA, % UTC: 79 % UTC
Yap1 mRNA; Table 58, 62.5 nM
  Yap1 mRNA, % UTC: 50 % UTC
Yap1 mRNA; Table 58, 4000.00 nM
  Yap1 mRNA, % UTC: 7 % UTC
Yap1 mRNA; [8]
  IC50: 100 nM

## 958534 (kT*kT*k[5mC]*dA*dG*d[5mC]*dA*dT*dA*dG*dA*dA*dG*kT*kA*kG; antisense) [compound 958534]
[4]
  ALT: 1962 U/L
  AST: 1617 U/L
  BUN: 26 mg/dL
  TBIL: 0.33 mg/dL
[5]
  Kidney weight: 0.32 g
  Liver weight: 1.81 g
  Spleen weight: 0.09 g
  body weight: 22 g
Yap1 mRNA; Table 61, 15.6 nM
  Yap1 mRNA, % UTC: 85 % UTC
Yap1 mRNA; Table 61, 62.5 nM
  Yap1 mRNA, % UTC: 48 % UTC
Yap1 mRNA; Table 61, 4000.00 nM
  Yap1 mRNA, % UTC: 9 % UTC
Yap1 mRNA; [7]
  IC50: 100 nM

## 958497 (kA*kT*kA*dT*dG*dG*dA*dA*dA*dT*dT*dG*dT*k[5mC]*kT*k[5mC]) [compound 958497]
[4]
  ALT: 46 U/L
  AST: 151 U/L
  BUN: 26 mg/dL
  TBIL: 0.24 mg/dL
[5]
  Kidney weight: 0.35 g
  Liver weight: 1.31 g
  Spleen weight: 0.11 g
  body weight: 23 g
Yap1 mRNA; Table 58, 15.6 nM
  Yap1 mRNA, % UTC: 82 % UTC
Yap1 mRNA; Table 58, 62.5 nM
  Yap1 mRNA, % UTC: 35 % UTC
Yap1 mRNA; Table 58, 4000.00 nM
  Yap1 mRNA, % UTC: 3 % UTC
Yap1 mRNA; [8]
  IC50: 100 nM
